We go through three molecules from PMC4507179, “Insights into the key interactions between human protein phosphatase 5 and cantharidin using molecular dynamics and site-directed mutagenesis bioassays” (Scientific Reports, 2015).

Substitutions are numbered along the chain they refer to. A value given as a limit tells only on which side of the number the result lay.

One assay concerns PP5. On the set-up: method as in PMID 17200551, PMID 19025735, PMID 20331621. The following applies: read-out: relative IC50 value against PP5; cited from earlier work.
Assay [1] concerns the target T1, recombinant wild-type HuPP5 (Homo sapiens, UniProt P53041).
T1 construct: 6xHis (N); made in house; host or cells: Escherichia coli BL21(DE3)pLysS, pET43.1b
T1 sequence (P53041 1-499): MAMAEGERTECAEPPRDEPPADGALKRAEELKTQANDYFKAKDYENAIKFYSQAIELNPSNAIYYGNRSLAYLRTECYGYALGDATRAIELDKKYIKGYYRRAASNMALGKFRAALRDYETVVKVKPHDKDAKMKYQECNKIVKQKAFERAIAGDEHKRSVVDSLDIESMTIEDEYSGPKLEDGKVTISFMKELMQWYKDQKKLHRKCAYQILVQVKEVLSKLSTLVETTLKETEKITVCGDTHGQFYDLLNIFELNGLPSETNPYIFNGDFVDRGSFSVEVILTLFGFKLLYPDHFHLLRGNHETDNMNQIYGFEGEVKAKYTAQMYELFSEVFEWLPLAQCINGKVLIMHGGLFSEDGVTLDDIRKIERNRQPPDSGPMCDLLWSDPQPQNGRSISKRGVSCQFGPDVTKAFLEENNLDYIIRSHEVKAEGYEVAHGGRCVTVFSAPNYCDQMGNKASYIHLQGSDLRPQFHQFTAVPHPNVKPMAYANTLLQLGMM
As to the kind of experiment: Inhibition of recombinant wild-type HuPP5 phosphatase activity (p-NPP substrate). The assay is classed as biochemical. As to conditions: mean ± S.D., three independent experiments. The method, then:
The structures for the manganese-containing systems (Figure S2) were taken from the Research Collaboration for Structural Bioinformatics protein database (RCSB Protein Data Bank, PDB ID: 3H63; 3H61; 3H64)[22], and all the structures were visualized using pymol 1.3 r1 edu. Manganese-related force field parameters were determined using Seminario’s method. Atomic single charge was calculated using the restrained electrostatic potential (RESP) fitting protocol. The Quantum Mechanics (QM) and Molecular Mechanics (MM) vibrational frequencies were compared to check the quality of the force field parameters. We performed three individual 50 ns MD at different seeds for each system. All MD simulations were performed with the AMBER12 package. All MD results were analyzed with the Ambertools13 package based on three individual 50 ns MD trajectories, and the data were averaged. Molecular Mechanics-Poisson-Boltzmann Surface Area (MM-PBSA)[32] calculations were performed on 1000 snapshots exacted from 40 ~ 50 ns production trajectories with a time interval of 10 ps to estimate the binding free energy. Since only the catalytic domain was used in the simulations, the starting point in our constructed structure corresponds to the 176th residue in the reference structure. […] The IC50 values of the three compounds against all HuPP5 proteins were calculated from the dose-dependent inhibition assay. […]
Cells were harvested by centrifugation (8,000 g for 10 min at 4 ℃) and were lysed by sonication in buffer A (20 mM Tris-HCl, pH=8.0, 4 mM MnCl2, 300 mM NaCl) containing 20 mM imidazole, 0.1% β-mercaptoethanol, 1.0 mg/ml lysozyme and 1 mM PMSF. […] Protein concentrations were determined using a BCA Protein Assay Kit (Pierce, Thermo Scientific, Rockford, IL, USA).
Enzymatic assays and inhibition studies. Phosphatase activity was measured using p-NPP (p-nitrophenyl phosphate) as substrate. […]

A further assay has as its target T2, HuPP5 R100A (Homo sapiens, UniProt P53041, R275A).
T2 construct: 6xHis (N); made in house; host or cells: Escherichia coli BL21(DE3)pLysS, pET43.1b
T2 sequence (P53041 1-499 R275A): T1 sequence (P53041 1-499) with R275A
In words: Inhibition of recombinant HuPP5 mutant R100A (p-NPP substrate). The assay is classed as biochemical. The following applies: for IC50: recombinant HuPP5 R100A, p-NPP, mean ± S.D., three independent experiments; for ΔΔGbind-exp, R100A: ΔΔGbind = RTln(IC50 mutant/IC50 wild-type). The source says:
(§1) A PCR-based site-directed mutagenesis approach was used to change Arg 100 to Ala (R100A), His 129 to Ala (H129A), and Arg 225 to Ala (R225A). All recombinant enzymes were soluble, expressed in E. coli and purified to homogeneity (>90% pure) (Figure S9). […] However, their inhibitory activity was suppressed against the three individually site-directed mutagenesis HuPP5: R100A, H129A, and R225A (Table S7). H129A appears to be most unfavorable to the binding of these inhibitors due to the highest IC50 values (>10 mM). […]
(§2) Site-directed mutagenesis. The sequence encoding the ORF of Human PP5 (HuPP5) was isolated from the liver cancer cell line SMMC-7721 by PCR using primers that introduced a Nde I site and 6xHis tag at the forward one, and a Xho I site at the reverse one. The PCR products were cloned into pCR2.1 (Invitrogen, Carlsbad, CA, USA) and transformed into DH5α (TaKaRa, Dalian, China) and then sequenced (AuGCT, Inc., Beijing, China). The mutants were generated using the QuikChange® site-directed mutagenesis kit (Stratagene, La Jolla, CA, USA) following the instruction manual. The mutagenic primers were designed based on the sequence of wild-type […]
(§3) The mutants were sequenced to confirm the presence of the desired mutations and the lack of undesired mutations.
(§4) Protein expression and purification. The wild-type and mutants HuPP5 were then cloned into the corresponding sites of pET43.1b (Novagen, Madison, WI, USA) and transformed into Escherichia coli BL21(DE3)pLysS (Novagen, Madison, WI, USA). Proteins were expressed in LB (also on this page, place not known: scan ning. T he Cβ -H Cβ -Cγ. energ y tantbinding mu wildtypeG G G −−ΔΔ =Δ −Δ tantbinding muG −Δ binding wildtypeG −Δ binding re spectively. bindingGΔΔ binding (Invitrogen , USA ) site -directed (Stratagene , USA ) wild -type S 5. purification . s ites (Novagen , USA )) […]
(§5) (Luria-Bertani) broth (containing 2 mM MnCl2, 100 μg/ml ampicillin and 34 μg/ml chloramphenicol) and induced with 0.1 mM IPTG (isopropyl β-thiogalactoside) for 24 h at 18 ℃.
(§6) Cells were harvested by centrifugation (8,000 g for 10 min at 4 ℃) and were lysed by sonication in buffer A (20 mM Tris-HCl, pH=8.0, 4 mM MnCl2, 300 mM NaCl) containing 20 mM imidazole, 0.1% β-mercaptoethanol, 1.0 mg/ml lysozyme and 1 mM PMSF. After centrifugation for 20 min at 20,000 g at 4 ℃, the supernatant was loaded to a buffer A pre-equilibrated Ni-NTA affinity column (Transgen, Beijing, China) to bind the 6xHis tagged protein. The reduction of non-specific interactions between the extract proteins and the matrix was achieved by washing the Ni-NTA resins with buffer B (20 mM Tris-HCl, pH=8.0, 300 mM NaCl, 1 mM EGTA, 0.1% β-mercaptoethanol, 4 mM MnCl2) containing 20 mM imidazole. Elution was then conducted using 150 mM imidazole in buffer B. The eluted HuPP5 fractions were pooled and dialyzed against buffer C (buffer B + 50% glycerol) overnight. Dialyzed samples were subjected to 12% SDS-PAGE and stained with Coomassie blue. Protein concentrations were determined using a BCA Protein Assay Kit (Pierce, Thermo Scientific, Rockford, IL, USA).
(§7) Enzymatic assays and inhibition studies. Phosphatase activity was measured using p-NPP (p-nitrophenyl phosphate) as substrate. Assays were performed in a 200 μL reaction containing 500 ng protein and assay buffer (20 mM p-NPP in 20 mM Tris (pH 7.4), 100 μM arachidonic acid, 1 mM EGTA, 0.1% β-mercaptoethanol and 0.1% ethanol). The reaction was initiated by adding the p-NPP and incubated at 35 ℃ for 10 min. Control reactions were assayed without enzyme.
(§8) Assays were terminated by addition of 200 μL of 5 N NaOH. Sample absorbance was measured at A410 using the TECANTM Infinite® 200 PRO multimode micro-plate reader after subtracting the appropriate background. Kinetic parameters were determined by using the Michaelis-Menten […]
(§9) plot analysis of data obtained under the assay conditions as mentioned above with the addition of […]

The target of a further assay is T3, HuPP5 H129A (Homo sapiens, UniProt P53041, H304A).
T3 construct: 6xHis (N); made in house; host or cells: Escherichia coli BL21(DE3)pLysS, pET43.1b
T3 sequence (P53041 1-499 H304A): T1 sequence (P53041 1-499) with H304A
As to the kind of experiment: Inhibition of recombinant HuPP5 mutant H129A (p-NPP substrate). The assay is classed as biochemical. The following applies: for IC50: recombinant HuPP5 H129A, p-NPP; for ΔΔGbind-exp, H129A: ΔΔGbind = RTln(IC50 mutant/IC50 wild-type).
Excerpt: as §1, §2, §3, §4, §5, §6, §7, §8, §9

A further assay concerns the target T4, HuPP5 R225A (Homo sapiens, UniProt P53041, R400A).
T4 construct: 6xHis (N); made in house; host or cells: Escherichia coli BL21(DE3)pLysS, pET43.1b
T4 sequence (P53041 1-499 R400A): T1 sequence (P53041 1-499) with R400A
In words: Inhibition of recombinant HuPP5 mutant R225A (p-NPP substrate). The class given is biochemical. The following applies: for IC50: recombinant HuPP5 R225A, p-NPP, mean ± S.D., three independent experiments; for ΔΔGbind-exp, R225A: ΔΔGbind = RTln(IC50 mutant/IC50 wild-type).
Excerpt: as §1, §2, §3, §4, §5, §6, §7, §8, §9

What is called IC50 is the concentration at which inhibition is half-maximal. On to `C[C@@]12C(=O)OC(=O)[C@]1(C)[C@H]1CC[C@@H]2O1` [Cantharidin, cantharidin], for which the IC50 in the assay on PP5 is 0.6 µM; in assay [1] it was 0.82 µM; at HuPP5 R100A, 4.05 ± 0.34 µM; on HuPP5 H129A, > 10000 µM; on HuPP5 R225A, 21.9 ± 1.12 µM. Moreover, the “ΔΔGbind-exp, R100A” value on HuPP5 R100A was 0.97 kcal/mol. In addition, at HuPP5 H129A, the “ΔΔGbind-exp, H129A” value was >5.74 kcal/mol. At HuPP5 R225A, the “ΔΔGbind-exp, R225A” value is 2.03 kcal/mol.
`O=C(O)[C@@H]1[C@H](C(=O)O)[C@H]2CC[C@@H]1O2` [Endothall, endothall]: the IC50 in assay [1] is 3.64 µM. Also, at HuPP5 R100A, the IC50 was 18.4 ± 0.39 µM and the “ΔΔGbind-exp, R100A” value worked out at 0.99 kcal/mol. Further, at HuPP5 H129A, the IC50 is > 10000 µM and the “ΔΔGbind-exp, H129A” value is >4.83 kcal/mol. Besides, the “IC50 on R225A higher than that of cantharidin” value at HuPP5 R225A (ratio of IC50 values on HuPP5 R225A, versus cantharidin) amounted to 48.54 fold. The “IC50 on R225A higher than that of norcantharidin” value on HuPP5 R225A (ratio of IC50 values on HuPP5 R225A, versus norcantharidin) was 6.47 fold. Besides, on HuPP5 R225A, the IC50 is 1060 ± 63.7 µM and the “ΔΔGbind-exp, R225A” value amounted to 3.46 kcal/mol.
In the case of `O=C1OC(=O)[C@H]2[C@@H]1[C@@H]1CC[C@H]2O1` [Norcantharidin, norcantharidin], in assay [1], the IC50 came out at 4.18 µM. On HuPP5 R100A, the IC50 came out at 17.8 ± 1.44 µM and the “ΔΔGbind-exp, R100A” value is 0.88 kcal/mol. For the same molecule, on HuPP5 H129A, the IC50 was > 10000 µM and the “ΔΔGbind-exp, H129A” value is listed as >4.75 kcal/mol. Besides, on HuPP5 R225A, the IC50 was found to be 164 ± 9.84 µM and the “ΔΔGbind-exp, R225A” value was found to be 2.24 kcal/mol.
